Measurements published in patent EP4122499A1, “FIBROBLAST ACTIVATION PROTEIN INHIBITORS AND USE THEREOF” (3B Pharmaceuticals GmbH, priority 2021, dated 2023).

Experiments:
[1] = target: T1, FAP-expressing human WI-38 fibroblasts (Homo sapiens, UniProt Q12884); experiment: Competitive FACS binding assay (displacement of Cy5-labeled FAP inhibitor 3BP-2935); details: 3 nM Cy5-labeled 3BP-2935, 4°C, 1 hour
T1 construct: FAP-expressing human WI-38 fibroblasts (ECACC 90020107) were cultured in EMEM; host or cells: WI-38 human fibroblasts
T1 sequence (Q12884 1-760): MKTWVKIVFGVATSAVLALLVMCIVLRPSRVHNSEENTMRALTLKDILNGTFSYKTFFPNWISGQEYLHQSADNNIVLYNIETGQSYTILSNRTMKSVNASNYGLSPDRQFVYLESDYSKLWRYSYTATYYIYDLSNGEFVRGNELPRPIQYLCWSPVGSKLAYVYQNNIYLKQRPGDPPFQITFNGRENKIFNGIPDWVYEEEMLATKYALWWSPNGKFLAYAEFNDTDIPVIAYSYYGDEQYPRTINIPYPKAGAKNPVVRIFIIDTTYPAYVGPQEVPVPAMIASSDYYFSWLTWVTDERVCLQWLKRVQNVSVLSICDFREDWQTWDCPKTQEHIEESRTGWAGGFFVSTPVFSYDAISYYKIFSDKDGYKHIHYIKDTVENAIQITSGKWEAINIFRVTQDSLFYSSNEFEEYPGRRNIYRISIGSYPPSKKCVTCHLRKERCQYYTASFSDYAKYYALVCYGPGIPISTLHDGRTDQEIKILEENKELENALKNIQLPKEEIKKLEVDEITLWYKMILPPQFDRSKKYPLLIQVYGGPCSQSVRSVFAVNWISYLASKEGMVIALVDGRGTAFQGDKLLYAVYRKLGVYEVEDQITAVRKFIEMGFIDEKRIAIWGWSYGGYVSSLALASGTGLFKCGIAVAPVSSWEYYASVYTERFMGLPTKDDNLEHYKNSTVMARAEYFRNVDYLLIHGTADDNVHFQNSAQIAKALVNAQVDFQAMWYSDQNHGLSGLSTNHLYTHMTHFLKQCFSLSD

[2] = target: T2, recombinant human PREP (Homo sapiens, UniProt P48147); experiment: PREP protease activity assay; type: biochemical; details: 50 µM Z-GP-AMC substrate
T2 construct: purchased R&D systems 4308-SE
T2 sequence (P48147 1-710): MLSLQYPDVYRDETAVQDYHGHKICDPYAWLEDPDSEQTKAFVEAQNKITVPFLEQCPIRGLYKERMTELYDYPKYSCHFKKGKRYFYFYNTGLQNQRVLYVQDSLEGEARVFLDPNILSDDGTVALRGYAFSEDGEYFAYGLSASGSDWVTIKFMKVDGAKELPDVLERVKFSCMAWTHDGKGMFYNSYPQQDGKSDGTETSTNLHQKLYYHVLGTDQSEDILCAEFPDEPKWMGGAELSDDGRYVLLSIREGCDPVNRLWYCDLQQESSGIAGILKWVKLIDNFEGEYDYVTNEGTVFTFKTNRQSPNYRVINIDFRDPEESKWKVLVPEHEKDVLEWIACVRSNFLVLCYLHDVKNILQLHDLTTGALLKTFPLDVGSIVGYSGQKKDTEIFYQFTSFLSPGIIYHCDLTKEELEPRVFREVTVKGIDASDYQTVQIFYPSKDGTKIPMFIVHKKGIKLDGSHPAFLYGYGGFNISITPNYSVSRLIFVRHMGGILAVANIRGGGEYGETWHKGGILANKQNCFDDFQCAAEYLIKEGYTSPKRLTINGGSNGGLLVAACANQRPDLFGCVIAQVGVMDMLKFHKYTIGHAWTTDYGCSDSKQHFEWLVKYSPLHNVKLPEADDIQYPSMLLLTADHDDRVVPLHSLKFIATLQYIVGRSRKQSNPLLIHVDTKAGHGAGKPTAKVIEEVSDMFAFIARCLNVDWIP
Method: The PREP activity assay was performed using the FACS buffer (PBS including 1% FBS, Sigma-Aldrich, Cat# D8537). […] The DPP4 activity assay was performed in DPP assay buffer (25 mM Tris, pH 8.0).
Four parameter logistic (4PL) curve fitting and pIC50 calculations were performed using ActivityBase software.

[3] = target: T3, Recombinant mouse FAP (Mus musculus, UniProt P97321); experiment: FRET-based FAP protease activity assay (mouse); type: biochemical; details: FRET-peptide substrate, 37°C; for IC50: read-out: pIC50 (mouseFAP) (converted)
T3 construct: purchased R&D systems 8647-SE
T3 sequence (P97321 1-761): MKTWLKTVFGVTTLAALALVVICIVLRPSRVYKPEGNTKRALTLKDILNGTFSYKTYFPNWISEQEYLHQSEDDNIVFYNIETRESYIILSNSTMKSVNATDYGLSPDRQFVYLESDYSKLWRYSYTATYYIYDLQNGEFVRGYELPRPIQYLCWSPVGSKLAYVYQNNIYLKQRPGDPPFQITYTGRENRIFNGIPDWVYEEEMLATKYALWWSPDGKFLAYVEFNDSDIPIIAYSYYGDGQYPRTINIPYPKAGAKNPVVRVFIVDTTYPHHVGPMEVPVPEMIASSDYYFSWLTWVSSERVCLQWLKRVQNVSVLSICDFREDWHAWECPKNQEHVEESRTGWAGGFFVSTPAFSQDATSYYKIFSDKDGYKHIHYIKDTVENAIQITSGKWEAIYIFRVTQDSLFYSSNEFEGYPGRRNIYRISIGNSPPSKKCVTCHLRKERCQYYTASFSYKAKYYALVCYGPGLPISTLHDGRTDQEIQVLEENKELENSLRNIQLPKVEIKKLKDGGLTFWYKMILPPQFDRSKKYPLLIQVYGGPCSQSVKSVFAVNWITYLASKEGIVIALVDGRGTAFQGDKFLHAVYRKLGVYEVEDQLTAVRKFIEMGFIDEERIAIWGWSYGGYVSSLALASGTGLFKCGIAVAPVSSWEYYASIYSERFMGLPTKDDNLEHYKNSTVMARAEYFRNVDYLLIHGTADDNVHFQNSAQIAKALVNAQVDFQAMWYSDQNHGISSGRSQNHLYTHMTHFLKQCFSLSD
Method: In order to determine the inhibitory activity a FRET-based FAP protease activity assay was established.
25 µL of a 30 µM substrate solution, diluted in assay buffer, was added. […] Four parameter logistic (4PL) curve fitting and pIC50 calculations were performed using ActivityBase software.

Row | Compound | IC50 [1] [nM] | IC50 [2] [nM] | IC50 [3] [nM] | pIC50 (FACS) [1] | pIC50 (mouseFAP) [3] | pIC50 (PREP) [2]
1 | CS(=O)(=O)c1cccc(-c2ccc3nccc(C(=O)NCC(=O)N4CCC[C@H]4C#N)c3c2)c1 | 3.98 | > 1000 |  |  |  | 
2 | CS(=O)(=O)c1cccc(-c2ccc3c(C(=O)NCC(=O)N4CCC[C@H]4C#N)ccnc3c2)c1 | 6.31 | > 1000 |  |  |  | 
3 | O=C(NCC(=O)N1CCC[C@H]1C(=O)c1nc2ccccc2s1)c1ccnc2ccccc12 | 63.1 | 15.8 |  |  |  | 
4 | O=C(NCC(=O)N1CCC[C@H]1C(=O)c1nc2ccccc2o1)c1ccnc2ccccc12 | 6.31 | 1 | 2 |  |  | 
5 | O=C(NCC(=O)N1CCC[C@H]1C(=O)c1nccs1)c1ccnc2ccccc12 | 100 | 25.1 |  |  |  | 
6 | CS(=O)(=O)c1ccc(-c2ccc3nccc(C(=O)NCC(=O)N4CC(F)(F)C[C@H]4C#N)c3c2)cc1 | 1 | > 1000 | 0.794 |  |  | 
7 | CS(=O)(=O)c1ccc(-c2ccc3nccc(C(=O)NCC(=O)N4CCC[C@H]4C#N)c3c2)cc1 | 3.98 | > 1000 |  |  |  | 
8 | O=C(O)CN1CCN(CC(=O)O)CCN(CC(=O)N2CCN(CCCOc3ccc4nccc(C(=O)NCC(=O)N5CC(F)(F)C[C@H]5C(=O)c5nc6ccccc6o5)c4c3)CC2)CCN(CC(=O)O)CC1 |  |  |  | 7.9 | 8.3 | 6.7
9 | N#C[C@@H]1CC(F)(F)CN1C(=O)CNC(=O)c1ccnc2ccc(-c3ccc(S(=O)(=O)CCCNC(=O)CN4CCN(CC(=O)O)CCN(CC(=O)O)CCN(CC(=O)O)CC4)cc3)cc12 |  |  |  | 9.2 | 9 | <6
10 | O=C(O)CN1CCN(CC(=O)O)CCN(CC(=O)NCCCNC(=O)c2ccc(-c3ccc4nccc(C(=O)NCC(=O)N5CCC[C@H]5C(=O)c5nc6ccccc6o5)c4c3)cc2)CCN(CC(=O)O)CC1 |  |  |  | 8.6 | 8.7 | 8.2
11 | N#C[C@@H]1CC(F)(F)CN1C(=O)CNC(=O)c1cc[n+]([O-])c2ccc(OCCCN3CCN(C(=O)CN4CCN(CC(=O)O)CCN(CC(=O)O)CCN(CC(=O)O)CC4)CC3)cc12 |  |  |  | 8.5 | 8.8 | 
12 | N#C[C@@H]1CC(F)(F)CN1C(=O)CNC(=O)c1ccnc2ccc(-c3ccc(C(=O)NCCCNC(=O)CN4CCN(CC(=O)O)CCN(CC(=O)O)CCN(CC(=O)O)CC4)cc3)cc12 |  |  |  | 8.9 | 9.2 | 
13 | N#C[C@@H]1CC(F)(F)CN1C(=O)CNC(=O)c1ccnc2ccc(-c3ccc(C(=O)NCCN4CCN(C(=O)CN5CCN(CC(=O)O)CCN(CC(=O)O)CCN(CC(=O)O)CC5)CC4)cc3)cc12 |  |  |  | 8.7 | 8.9 | <6
14 | CC(C)(C)c1nnc(C(=O)[C@@H]2CCCN2C(=O)CNC(=O)c2ccnc3ccccc23)o1 | 15.8 | 1.26 | 3.98 |  |  | 
15 | N#C[C@@H]1CC(F)(F)CN1C(=O)CNC(=O)c1ccnc2ccc(-c3ccc(C(=O)NCCCNC(=O)CN4CCN(CC(=O)O)CCN(CC(=O)O)CCN(CC(=O)O)CC4)nc3)cc12 |  |  |  | 8.8 | 8.8 | <6
16 | N#C[C@@H]1CCCN1C(=O)CNC(=O)c1ccnc2ccc(-c3ccc(C(=O)NCCCNC(=O)CN4CCN(CC(=O)O)CCN(CC(=O)O)CCN(CC(=O)O)CC4)cc3)cc12 |  |  |  | 8.7 | 9 | 
17 | O=C(O)CN1CCN(CC(=O)O)CCN(CC(=O)NCCCNC(=O)c2ccc(-c3ccc4nccc(C(=O)NCC(=O)N5CCC[C@H]5B(O)O)c4c3)cc2)CCN(CC(=O)O)CC1 |  |  |  | 8.9 | 8.5 | 8.2
18 | CS(=O)(=O)c1cccc(-c2ccc3nccc(C(=O)NCC(=O)N4CC(F)(F)C[C@H]4C#N)c3c2)c1 [drawing 288] | 1.58 | > 1000 | 1 |  |  | 
19 | CS(=O)(=O)c1cccc(-c2ccc3c(C(=O)NCC(=O)N4CC(F)(F)C[C@H]4C#N)ccnc3c2)c1 [drawing 289] | 2 | > 1000 | 1.26 |  |  | 
20 | CS(=O)(=O)c1ccc(-c2ccc3c(C(=O)NCC(=O)N4CCC[C@H]4C#N)ccnc3c2)cc1 [drawing 290] | 6.31 | 794 |  |  |  | 
21 | O=C(NCC(=O)N1CCC[C@H]1C(=O)c1ncco1)c1ccnc2ccccc12 [drawing 297] | 12.6 | 0.631 |  |  |  | 
22 | O=C(O)CN1CCN(CC(=O)O)CCN(CC(=O)N2CCN(CCNC(=O)c3cccc(-c4ccc5c(C(=O)NCC(=O)N6CCC[C@H]6C(=O)c6nc7ccccc7o6)ccnc5c4)c3)CC2)CCN(CC(=O)O)CC1 [drawing 352] |  |  |  | 8.4 | 8.9 | 8.4
23 | O=C(O)CN1CCN(CC(=O)O)CCN(CC(=O)N2CCN(CCNC(=O)c3cccc(-c4ccc5nccc(C(=O)NCC(=O)N6CCC[C@H]6C(=O)c6nc7ccccc7o6)c5c4)c3)CC2)CCN(CC(=O)O)CC1 [drawing 353] |  |  |  | 8.5 | 8.6 | 7.8
24 | O=C(O)CN1CCN(CC(=O)O)CCN(CC(=O)N2CCN(CCNC(=O)c3ccc(-c4ccc5nccc(C(=O)NCC(=O)N6CCC[C@H]6C(=O)c6nc7ccccc7o6)c5c4)cc3)CC2)CCN(CC(=O)O)CC1 [drawing 354] |  |  |  | 7.9 | 8.1 | 8.2
25 | O=C(O)CN1CCN(CC(=O)O)CCN(CC(=O)N2CCN(CCNC(=O)c3ccc(-c4ccc5c(C(=O)NCC(=O)N6CCC[C@H]6C(=O)c6nc7ccccc7o6)ccnc5c4)cc3)CC2)CCN(CC(=O)O)CC1 [drawing 355] |  |  |  | 8.4 | 8.8 | 8.7
26 | O=C(O)CN1CCN(CC(=O)O)CCN(CC(=O)N2CCN(CCCOc3ccc4nccc(C(=O)NCC(=O)N5CCC[C@H]5C(=O)c5nc6ccccc6o5)c4c3)CC2)CCN(CC(=O)O)CC1 [drawing 357] |  |  |  | 8.6 | 8.5 | 8.6
